PMC3250963, “Novel dimeric DOTA-coupled peptidic Y1-receptor antagonists for targeting of neuropeptide Y receptor-expressing cancers” (EJNMMI Research, 2011)
Bridge positions count the residues as written; N and C are the ends. Square brackets hold non-standard residues; d marks the D form. Peptide text beside a SMILES is read from it. I, II: the chains in the order shown. * marks the point of attachment. DOTA = O=C(O)CN1CCN(CC(=O)O)CCN(CC(=O)*)CCN(CC(=O)O)CC1; Nle = CCCC[C@H](N)C(=O)O; Dap = NC[C@H](N)C(=O)O

What was measured:
NPY Y2 receptor = biological target: T1, NPY Y2 receptor (Homo sapiens, UniProt P49146); experiment: Receptor autoradiography competition binding (125I-hPYY) on SH-SY5Y cell membrane pellet sections; conditions: SH-SY5Y membrane pellets, 125I-hPYY displacement; n ≥ 3; read-out: Binding affinity Y2 (IC50)
T1 construct: SH-SY5Y cells endogenously expressing Y2; endogenous in cells; host or cells: SH-SY5Y
T1 sequence (P49146 1-381): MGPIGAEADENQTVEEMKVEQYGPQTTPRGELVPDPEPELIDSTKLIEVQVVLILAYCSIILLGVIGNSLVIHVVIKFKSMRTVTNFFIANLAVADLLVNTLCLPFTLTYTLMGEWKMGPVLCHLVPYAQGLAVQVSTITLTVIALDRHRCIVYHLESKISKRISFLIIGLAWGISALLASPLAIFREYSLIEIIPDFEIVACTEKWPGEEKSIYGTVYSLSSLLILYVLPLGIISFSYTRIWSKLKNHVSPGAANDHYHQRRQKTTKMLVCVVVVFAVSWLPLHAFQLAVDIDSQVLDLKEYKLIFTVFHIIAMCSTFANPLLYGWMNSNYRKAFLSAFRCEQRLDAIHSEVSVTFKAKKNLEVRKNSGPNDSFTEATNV
Method: (§1) The neuroepithelioma cell line SK-N-MC endogenously expressing the NPY Y1 receptor was obtained from ATCC (HTB-10; LGC Standards, Teddington, Middlesex, UK) and cultured at 37°C and 5% CO2 in MEM with GlutaMax I and supplemented with 10% FBS, 100 U/ml penicillin and 100 μg/ml streptomycin, 1 mM MEM sodium pyruvate, and MEM non-essential amino acids (× 1). The neuroblastoma cell line SH-SY5Y endogenously expressing the NPY Y2 receptor, kindly provided by Dr. Paolo Paganetti (Novartis, Basel, Switzerland), was cultured at 37°C and 5% CO2 in MEM/Ham's F12 with GlutaMax I and supplemented with 10% FBS, 100 U/ml penicillin and 100 μg/ml streptomycin, 1 mM MEM sodium pyruvate, and MEM non-essential amino acids (× 1). All culture reagents were from Gibco BRL, Life Technologies, (Grand Island, NY, USA).
(§2) Binding affinities of the compounds were assessed using sections of cell membrane pellets of SK-N-MC for Y1 or SH-SY5Y for Y2, as described before. Briefly, membrane pellets were prepared and stored at -80°C, and receptor autoradiography was performed on 20-μm-thick cryostat (Microm HM 500, Walldorf, Germany) sections of the membrane pellets, mounted on microscope slides and stored at -20°C as previously described for other cell lines and receptors. The slides were preincubated in Krebs-Ringer solution (NaCl 119 mM, KCl 3.2 mM, KH2PO4 1.19 mM, MgSO4 1.19 mM, NaHCO3 25 mM, CaCl2 2.53 mM, D-glucose 10 mM; pH 7.4) for 60 min at room temperature. Then, they were incubated for 120 min in the incubation solution containing the Krebs-Ringer solution, 0.1% BSA, 0.05% bacitracin, and 10,000 cpm/100 μl of the ^125I-labeled human PYY (hPYY; 2,000 Ci/mmol; Anawa, Wangen, Switzerland). Membrane pellet sections were incubated with ^125I-hPYY in increasing concentrations ranging from 0.1 nM up to 1,000 nM of non-labeled hPYY, as control, or with the compounds to be tested. After the incubation, the slides were washed two times for 5 min and then rinsed four times in ice-cold preincubation solution. After drying, the slides were exposed to Kodak films Biomax MR® for 7 days. IC50 values were calculated after quantification of the data using a computer-assisted image processing system (Analysis Imaging System, Interfocus, Mering, Germany). Tissue standards (autoradiographic [^125I] and/or [^14C] microscales, GE Healthcare, Little Chalfont, UK) containing a known amount of isotope, cross-calibrated to tissue-equivalent ligand concentrations were used for quantification.

NPY Y1 receptor [1] = biological target: T2, NPY Y1 receptor (Homo sapiens, UniProt P25929); experiment: Receptor autoradiography competition binding (125I-hPYY) on SK-N-MC cell membrane pellet sections; conditions: for IC50: SK-N-MC membrane pellets, 125I-hPYY displacement, mean ± SEM, n ≥ 3, read-out: Binding affinity Y1 (IC50); for Y1 binding affinity in words (displacement of 125I-hPYY): SK-N-MC cell membrane pellet sections
T2 construct: SK-N-MC cells endogenously expressing Y1; host or cells: SK-N-MC
T2 sequence (P25929 1-384): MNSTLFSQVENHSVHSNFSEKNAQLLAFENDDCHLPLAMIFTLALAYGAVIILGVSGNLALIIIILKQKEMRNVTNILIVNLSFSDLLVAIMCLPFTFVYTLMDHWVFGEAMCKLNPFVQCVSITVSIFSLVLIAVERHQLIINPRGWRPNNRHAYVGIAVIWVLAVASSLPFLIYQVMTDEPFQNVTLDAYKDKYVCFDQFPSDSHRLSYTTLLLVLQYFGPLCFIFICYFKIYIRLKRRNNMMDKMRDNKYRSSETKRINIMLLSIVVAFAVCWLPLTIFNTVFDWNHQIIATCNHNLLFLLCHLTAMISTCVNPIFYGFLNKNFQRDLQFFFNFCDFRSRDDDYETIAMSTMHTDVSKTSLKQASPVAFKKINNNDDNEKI
Method: as §1, §2

NPY Y1 receptor [2] = biological target: T2, NPY Y1 receptor; experiment: Forskolin-stimulated adenylate cyclase activity (cAMP flashplate assay) in SK-N-MC cells; assay type: cell-based; conditions: 10 μM forskolin; for Functional assay cAMP for Y1: analog 20 μM alone or with 100 nM [Leu31,Pro34]-hPYY
Method: Adenylate cyclase activity was determined in SK-N-MC cells using the adenylate cyclase activation flashplate assay (SMP004) from PerkinElmer (Waltham, MA, USA). SK-N-MC cells were seeded in 96-well culture plates at 25,000 cells/well and cultured for 48 h at 37°C and 5% CO2. Culture medium was then removed from the wells and fresh medium (100 μL) containing 0.5 mM 3-isobutyl-1-methylxanthine (IBMX) was added to each well. Cells were incubated for 30 min at 37°C. Medium was then removed and replaced with fresh medium containing 0.5 mM IBMX, with or without 10 μM forskolin and various concentrations of the peptides to be analyzed. Cells were incubated for 30 min at 37°C. After removal of the medium, cells were lysed and cAMP accumulation was determined using the SMP004 kit from PerkinElmer according to the instructions of the manufacturers.
Figure 4 Effect of various Y1 affine analogs on forskolin-stimulated intracellular cAMP accumulation in SK-N-MC cells. Cells were incubated for 30 min with 10 μM forskolin either alone, or with 10 μM forskolin in the presence of 20 μM or 100 nM of the reference compound [Leu^31, Pro^34]-PYY (LP-PYY), or with 10 μM forskolin in the presence of the various Y1 affine analogs either alone at a concentration of 20 μM or at a concentration of 20 μM in the presence of 100 nM LP-PYY. Intracellular cAMP accumulation was then determined as described in Methods. Results are shown as percentage of the 10 μM forskolin effect on intracellular cAMP accumulation.
Cells were incubated for 30 min with 10 μM forskolin in the presence of [Leu^31, Pro^34]-PYY (LP-PYY) at concentrations ranging between 0.01 nM and 20 μM alone (solid circle) or with 10 μM forskolin in the presence of LP-PYY at concentrations ranging between 0.01 nM and 20 μM supplemented with a fixed concentration of 20 μM of the analog 11 (solid square). […] Compound 11 given alone at a concentration of 20 μM has no effect on the accumulation of forskolin-stimulated cAMP (solid triangle).

Y5 = system: Y5; set-up: method as in PMID 12182951; conditions: rats, in vivo; cited from earlier work

| IC50 (NPY Y2 receptor) [nM] | IC50 (NPY Y1 receptor [1]) [nM] | Functional assay cAMP for Y1 (NPY Y1 receptor [2]) | Compound | Y1 binding affinity in words (displacement of 125I-hPYY) (NPY Y1 receptor [1]) | further results |
| --- | --- | --- | --- | --- | --- |
| > 1000 | 29 ± 7 |  | CCCC[C@H](NC(=O)[C@H](CCCNC(=N)N)NC(=O)[C@H](Cc1c[nH]c2ccccc12)NC(=O)[C@H](CSSC[C@H](NC(=O)[C@@H]1CCCN1C(=O)[C@H](CC(N)=O)NC(=O)[C@@H](N)[C@@H](C)CC)C(=O)N[C@@H](Cc1c[nH]c2ccccc12)C(=O)N[C@@H](CCCNC(=N)N)C(=O)N[C@@H](CCCC)C(=O)N[C@@H](CCCNC(=N)N)C(=O)N[C@@H](Cc1ccc(O)cc1)C(N)=O)NC(=O)[C@@H]1CCCN1C(=O)[C@H](CNC(=O)CN1CCN(CC(=O)O)CCN(CC(=O)O)CCN(CC(=O)O)CC1)NC(=O)[C@@H](N)[C@@H](C)CC)C(=O)N[C@@H](CCCNC(=N)N)C(=O)N[C@@H](Cc1ccc(O)cc1)C(N)=O [Analog 8] (I: H-I[Dap](DOTA)PCWR[Nle]RY-NH2 / II: H-INPCWR[Nle]RY-NH2; disulfide I:4-II:4) |  |  |
| > 1000 | 127 ± 50 |  | CCCC[C@H](NC(=O)[C@H](CCCNC(=N)N)NC(=O)[C@H](Cc1c[nH]c2ccccc12)NC(=O)[C@H](CSSC[C@H](NC(=O)[C@@H]1CCCN1C(=O)[C@H](CCCCN)NC(=O)[C@@H](N)[C@@H](C)CC)C(=O)N[C@@H](Cc1c[nH]c2ccccc12)C(=O)N[C@@H](CCCNC(=N)N)C(=O)N[C@@H](CCCC)C(=O)N[C@@H](CCCNC(=N)N)C(=O)N[C@@H](Cc1ccc(O)cc1)C(N)=O)NC(=O)[C@@H]1CCCN1C(=O)[C@H](CCCCN)NC(=O)[C@@H](N)[C@@H](C)CC)C(=O)N[C@@H](CCCNC(=N)N)C(=O)N[C@@H](Cc1ccc(O)cc1)C(N)=O [Analog 9] (I: H-IKPCWR[Nle]RY-NH2 / II: H-IKPCWR[Nle]RY-NH2; disulfide I:4-II:4) |  |  |
| > 1000 | 283 ± 52 | Antagonist | CCCC[C@H](NC(=O)[C@H](CCCNC(=N)N)NC(=O)[C@H](Cc1c[nH]c2ccccc12)NC(=O)[C@H](CSSC[C@H](NC(=O)[C@@H]1CCCN1C(=O)[C@H](CCCCNC(=O)CN1CCN(CC(=O)O)CCN(CC(=O)O)CCN(CC(=O)O)CC1)NC(=O)[C@@H](N)[C@@H](C)CC)C(=O)N[C@@H](Cc1c[nH]c2ccccc12)C(=O)N[C@@H](CCCNC(=N)N)C(=O)N[C@@H](CCCC)C(=O)N[C@@H](CCCNC(=N)N)C(=O)N[C@@H](Cc1ccc(O)cc1)C(N)=O)NC(=O)[C@@H]1CCCN1C(=O)[C@H](CCCCNC(=O)CN1CCN(CC(=O)O)CCN(CC(=O)O)CCN(CC(=O)O)CC1)NC(=O)[C@@H](N)[C@@H](C)CC)C(=O)N[C@@H](CCCNC(=N)N)C(=O)N[C@@H](Cc1ccc(O)cc1)C(N)=O [Analog 10] (I: H-IK(DOTA)PCWR[Nle]RY-NH2 / II: H-IK(DOTA)PCWR[Nle]RY-NH2; disulfide I:4-II:4) | lower affinity displacements of ^125I-hPYY |  |
| > 1000 | 13 ± 3 | Antagonist | CCCC[C@H](NC(=O)[C@H](CCCNC(=N)N)NC(=O)[C@H](Cc1c[nH]c2ccccc12)NC(=O)[C@H](CSSC[C@H](NC(=O)[C@@H]1CCCN1C(=O)[C@H](CC(N)=O)NC(=O)[C@@H](N)[C@@H](C)CC)C(=O)N[C@@H](Cc1c[nH]c2ccccc12)C(=O)N[C@@H](CCCNC(=N)N)C(=O)N[C@@H](CCCC)C(=O)N[C@@H](CCCNC(=N)N)C(=O)N[C@@H](Cc1ccc(O)cc1)C(N)=O)NC(=O)[C@@H]1CCCN1C(=O)[C@H](CCCCNC(=O)CN1CCN(CC(=O)O)CCN(CC(=O)O)CCN(CC(=O)O)CC1)NC(=O)[C@@H](N)[C@@H](C)CC)C(=O)N[C@@H](CCCNC(=N)N)C(=O)N[C@@H](Cc1ccc(O)cc1)C(N)=O [Analog 11] (I: H-IK(DOTA)PCWR[Nle]RY-NH2 / II: H-INPCWR[Nle]RY-NH2; disulfide I:4-II:4) | high-affinity displacements of ^125I-hPYY | Shift of the dose response curve of [Leu31,Pro34]-hPYY to the right (NPY Y1 receptor [2]; 20 μM analog with increasing concentration of [Leu31,Pro34]-hPYY up to 20 μM): at least three orders of magnitude; Inhibition of forskolin-stimulated cAMP accumulation, analog given alone (NPY Y1 receptor [2]; analog alone at 20 μM): has no effect |
|  |  |  | Bis(31/31')[Cys^31, Nva^34]NPY(27-36)-NH2 |  | Stimulation of food intake (Y5): able to stimulate in vivo the food intake in rats |
|  |  |  | [Leu^31, Pro^34]-hPYY [reference compound] |  | Inhibition of forskolin-stimulated cAMP accumulation by agonist (NPY Y1 receptor [2]; agonist at 20 μM and 100 nM): efficiently inhibited forskolin-stimulated cAMP accumulation |
